The first data set in a line: in vitro. As to conditions: human, hela cells, % viability.
In the case of `C/C(=N/O)c1ccc(OCCCOc2ccc(/C(C)=N/O)cc2)cc1` [CBK262075], the viability at 28.5 h, 10 µM was found to be 95.2%.

For the molecule `O=C(NO)c1nc[nH]c1C(=O)NO` [CBK262077], the viability at 28.5 h, 10 µM is 97.7%.

Regarding `O=C1CC(N2CCN(C/C=C/c3ccccc3)CC2)C(=O)N1CCc1ccccc1` (stereo not shown) [CBK262082], the viability at 28.5 h, 10 µM was 83.6%.

Turning to `CC(NC(=O)COc1ccc(Br)cc1)C(=O)O` (stereo not shown) [CBK262083], the viability at 28.5 h, 10 µM was 87.4%.

In the case of `Cn1ccnc1C(O)(c1ccccc1)c1nccn1C` [CBK262084], the viability at 28.5 h, 10 µM worked out at 97.6%.

Regarding `O=C(Nc1ccc(Cc2ccc(NC(=O)c3ccc(Br)cc3)c(O)c2)cc1O)c1ccc(Br)cc1` [CBK262086], the viability at 28.5 h, 10 µM worked out at 102%.

Consider `CCC(Oc1ccccc1)C(=O)Nc1sc2c(c1C#N)CCCC2` (stereo not shown) [CBK262091], for which the viability at 28.5 h, 10 µM turned out to be 87.5%.

Consider `O=C(COc1ccc([N+](=O)[O-])cc1)N/N=C/c1cc(Br)cc(Br)c1O` [CBK262094], for which the viability at 28.5 h, 10 µM is 98.3%.

On to `COc1cccc(NC(=O)C(=O)NCCCO)c1` [CBK262095], for which the viability at 28.5 h, 10 µM came out at 89.6%.

Turning to `COc1cccc(/C=N/NC(=O)C(=O)NCc2ccccn2)c1O` [CBK262097], the viability at 28.5 h, 10 µM was 93.5%.

With `O=C(Nc1cccnc1)c1cc(S(=O)(=O)N2CCOCC2)ccc1Cl` [CBK262099], the viability at 28.5 h, 10 µM stood at 84.7%.

`O=C(NN1C(=O)c2ccccc2C1=O)c1cc(C(=O)NN2C(=O)c3ccccc3C2=O)cc(N2C(=O)c3ccccc3C2=O)c1` [CBK262100]: the viability at 28.5 h, 10 µM worked out at 88.2%.

With `Cc1ccc(Nc2nc(N/N=C/c3cccc4ccccc34)nc(N3CCC(Cc4ccccc4)CC3)n2)cc1` [CBK262101], the viability at 28.5 h, 10 µM amounted to 94.7%.

For the molecule `O=C(c1ccco1)N1CCN(S(=O)(=O)c2ccc3c(c2)C(=NO)c2cc(S(=O)(=O)N4CCN(C(=O)c5ccco5)CC4)ccc2-3)CC1` [CBK262103], the viability at 28.5 h, 10 µM worked out at 104%.

On to `CC(=O)Nc1ccc(N2C(=O)c3ccc(S(=O)(=O)c4ccc5c(c4)C(=O)N(c4ccc(NC(C)=O)cc4)C5=O)cc3C2=O)cc1` [CBK262105], for which the viability at 28.5 h, 10 µM came to 77.8%.

`O=C(CCn1c2ccccc2c2ccccc21)NNC(=S)Nc1ccccc1` [CBK262106]: the viability at 28.5 h, 10 µM is 94.6%.

`CC(=O)Nc1ccc(S(=O)(=O)N2CCCC(CO)C2)cc1` (stereo not shown) [CBK262108]: the viability at 28.5 h, 10 µM was 98.6%.

`NS(=O)(=O)c1ccc(NC(=O)/C(=C/c2ccc(Br)cc2)NC(=O)c2ccccc2)cc1` [CBK262109]: the viability at 28.5 h, 10 µM was 105%.

As to `COc1cc(/C=N/NC(=O)c2ccccn2)ccc1OC(=O)c1cccc2ccccc12` [CBK262110], the viability at 28.5 h, 10 µM was determined as 94.4%.

With `CCOc1ccc(/N=N\c2ccc(O)c(/C=N\Nc3ccc([N+](=O)[O-])cc3)c2)cc1` [CBK262111], the viability at 28.5 h, 10 µM amounted to 97.7%.

Regarding `O=C(Oc1cccc(/C=N/NC(=O)c2ccccn2)c1)c1cccc(Br)c1` [CBK262115], the viability at 28.5 h, 10 µM came out at 90.5%.

For `CN(C)CCCNC(=O)c1ccc([N+](=O)[O-])o1` [CBK262118], the viability at 28.5 h, 10 µM worked out at 92.8%.

For `COc1ccc(/C=N/NC(=O)Cn2nnnc2N)cc1` [CBK262122], the viability at 28.5 h, 10 µM turned out to be 84.9%.

Take `CCc1cc2c(=O)c(-c3nc4ccccc4n3C)c(C)oc2c(CN2CCOCC2)c1O` [CBK262124]: the viability at 28.5 h, 10 µM worked out at 94.1%.

Take `Nc1nnc(CC(=O)N/N=C/c2cc(Br)c(O)c(Br)c2O)s1` [CBK262131]: the viability at 28.5 h, 10 µM stood at 96%.

Consider `O=C(NCc1ccco1)c1ccc2c(c1)OCO2` [CBK262133], for which the viability at 28.5 h, 10 µM is 94.4%.

With `NC(=O)CCN(CCC(N)=O)S(=O)(=O)c1ccc(N)cc1` [CBK262134], the viability at 28.5 h, 10 µM came out at 118%.

On to `O=C(O)c1cc(NC(=O)c2ccccc2[N+](=O)[O-])cc(C(=O)O)c1` [CBK262135], for which the viability at 28.5 h, 10 µM amounted to 81.1%.

`C(=N\c1ccc(Cc2ccncc2)cc1)/c1ccc(/C=N/c2ccc(Cc3ccncc3)cc2)cc1` [CBK262137]: the viability at 28.5 h, 10 µM was 97%.

Regarding `CCOC(=O)Nc1ccc(S(=O)(=O)Nn2cnnc2)cc1` [CBK262138], the viability at 28.5 h, 10 µM was found to be 105%.

Take `O=C(O)c1cc(-c2cccnc2)nc2ccccc12` [CBK262141K]: the viability at 28.5 h, 10 µM came out at 103%.

Turning to `COc1ccc(C(O)Cc2nc3ccccc3n2Cc2ccc(Cl)cc2)cc1` (stereo not shown) [CBK262143], the viability at 28.5 h, 10 µM came out at 86.2%.

Take `O=C(N/N=C/c1ccc(O)c(I)c1)c1ccncc1` [CBK262144]: the viability at 28.5 h, 10 µM is 86.2%.

Regarding `O=C(N/N=C/c1ccc(OC(=O)c2ccc([N+](=O)[O-])cc2)cc1)c1cccnc1` [CBK262146], the viability at 28.5 h, 10 µM is 101%.

In the case of `O=C(O)c1cc(-c2ccccn2)nc2ccccc12` [CBK262147K], the viability at 28.5 h, 10 µM stood at 108%.

In the case of `COc1ccccc1NC(=O)C(=O)N/N=C/c1ccc(C(=O)O)cc1` [CBK262148], the viability at 28.5 h, 10 µM amounted to 93.8%.

In the case of `Cc1cc(C=O)c(O)c(/C=N/CC/N=C/c2cc(C)cc(C=O)c2O)c1` [CBK262149], the viability at 28.5 h, 10 µM was 95.6%.

With `O=C(Nc1ccncc1)OCCNC(=O)c1ccncc1` [CBK262150], the viability at 28.5 h, 10 µM was determined as 102%.

Consider `O=C(Cc1ccc([N+](=O)[O-])cc1)N/N=C/c1ccc(O)cc1` [CBK262152], for which the viability at 28.5 h, 10 µM is 84.5%.

On to `CN(CCN(C)/N=C/c1cccc2ccccc12)/N=C/c1cccc2ccccc12` [CBK262153], for which the viability at 28.5 h, 10 µM was 107%.

Turning to `COc1ccc(-c2ccc(/C=N/NC(=O)c3ccncc3)o2)c([N+](=O)[O-])c1` [CBK262156], the viability at 28.5 h, 10 µM amounted to 97.3%.

With `c1ccc2c(CNCc3ccc4c(c3)OCO4)c[nH]c2c1` [CBK262159], the viability at 28.5 h, 10 µM is 89.5%.

Regarding `NC(=O)c1c(NC(=O)COc2ccc(Cl)cc2)sc2c1CCC2` [CBK262163], the viability at 28.5 h, 10 µM amounted to 91%.

In the case of `O=C(O)CN1C(=O)c2ccc(C(=O)c3ccc4c(c3)C(=O)N(CC(=O)O)C4=O)cc2C1=O` [CBK262166], the viability at 28.5 h, 10 µM worked out at 82.3%.

As to `OCCn1c(-c2ccc(Br)cc2)cn2c3ccccc3nc12` [CBK262167], the viability at 28.5 h, 10 µM amounted to 95.2%.

For `COc1ccccc1CNCc1ccccc1OC` [CBK262168], the viability at 28.5 h, 10 µM came out at 106%.

`COc1cc(/C=N/NC(=O)c2cccc([N+](=O)[O-])c2)cc(OC)c1O` [CBK262172]: the viability at 28.5 h, 10 µM turned out to be 83.1%.

Regarding `Cc1cccnc1NC(=O)COc1ccc(Cl)cc1` [CBK262175], the viability at 28.5 h, 10 µM was determined as 106%.

For `O=C(N/N=C/c1cc2c(cc1Cl)OCO2)C(O)c1ccccc1` (stereo not shown) [CBK262177], the viability at 28.5 h, 10 µM was 112%.

On to `O=C(N/N=C/c1ccc(OC(=O)c2cccs2)cc1)c1ccccn1` [CBK262178], for which the viability at 28.5 h, 10 µM was determined as 107%.

On to `c1ccc(-c2n[nH]c(-c3ccncc3)c2-c2nc3ccccc3[nH]2)cc1` [CBK262180], for which the viability at 28.5 h, 10 µM worked out at 88%.

As for `COC(=O)Nc1ccc(S(=O)(=O)Oc2ccc(C)cc2-n2nc3ccccc3n2)cc1` [CBK262183], the viability at 28.5 h, 10 µM was determined as 89.3%.

On to `O=C(N/N=C/c1ccc(O)cc1)c1c[nH]c2ccccc12` [CBK262193], for which the viability at 28.5 h, 10 µM was found to be 91.4%.

For the molecule `COc1cc(CNC2CCCCCC2)c([N+](=O)[O-])cc1OC` [CBK262194], the viability at 28.5 h, 10 µM was 96.4%.

`O=C1c2ccc(Oc3ccc(Oc4ccc5c(c4)C(=O)N(c4cccnc4)C5=O)cc3)cc2C(=O)N1c1cccnc1` [CBK262195]: the viability at 28.5 h, 10 µM worked out at 95.7%.

Turning to `COc1c(O)ccc(/C=N/NC(=O)c2cccnc2)c1[N+](=O)[O-]` [CBK262197], the viability at 28.5 h, 10 µM came to 112%.

For the molecule `O=[N+]([O-])c1cc(/C=N/Nc2nnn[nH]2)ccc1N1CCOCC1` [CBK262199], the viability at 28.5 h, 10 µM was determined as 99.7%.

`CC(C)(C)c1cc(C(=O)NCC(=O)NCC(=O)O)cc(C(C)(C)C)c1` [CBK262200]: the viability at 28.5 h, 10 µM was 96%.

Consider `Cc1ccc(S(=O)(=O)c2cccc(S(=O)(=O)N3CCCCC3)c2)cc1S(=O)(=O)N1CCCCC1` [CBK262207], for which the viability at 28.5 h, 10 µM stood at 105%.

Consider `Cc1ccc(S(=O)(=O)NCC(Oc2ccc([N+](=O)[O-])cc2)c2ccccc2)cc1` (stereo not shown) [CBK262208], for which the viability at 28.5 h, 10 µM amounted to 101%.

On to `O=C(CC(Nc1ccc2ccccc2c1)c1ccncc1)c1ccc(Br)cc1` (stereo not shown) [CBK262209], for which the viability at 28.5 h, 10 µM was 98.7%.

Turning to `O=C(COc1ccc(-c2ccccc2)cc1)N/N=C/c1ccncc1` [CBK262210], the viability at 28.5 h, 10 µM worked out at 93.2%.

For the molecule `O=C(COc1ccc(I)cc1)N/N=C/c1cccc([N+](=O)[O-])c1` [CBK262211], the viability at 28.5 h, 10 µM is 95.2%.

For the molecule `Cc1ccc(C(CC(=O)N2CCN(Cc3ccccc3)CC2)c2ccccc2)c(O)c1C` (stereo not shown) [CBK262214], the viability at 28.5 h, 10 µM stood at 100%.

Regarding `O=C(c1sc2ccccc2c1Cl)n1cnc2ccccc21` [CBK262216], the viability at 28.5 h, 10 µM came to 101%.

With `Cc1[nH]c2ccccc2c1/C=C1/SC(=S)N(CC(=O)O)C1=O` [CBK262220], the viability at 28.5 h, 10 µM worked out at 118%.

Turning to `Cc1cc(N(C)CCc2ccccc2)nc2cc(Cl)ccc12` [CBK262221], the viability at 28.5 h, 10 µM was determined as 93.9%.

As for `O=C1CCC(=O)N1CC(O)Cn1c2ccc(Cl)cc2c2cc(Cl)ccc21` (stereo not shown) [CBK262222], the viability at 28.5 h, 10 µM was found to be 90.5%.

On to `O=C(NNc1nc(-c2ccccc2)cc(-c2ccccc2)n1)Nc1ccccc1` [CBK262223], for which the viability at 28.5 h, 10 µM was determined as 91.3%.

On to `O=C(O)/C(=N\c1cccc2ccccc12)c1ccccc1` [CBK262224], for which the viability at 28.5 h, 10 µM was 75.7%.

As to `Cc1ccc(/C=N/NC(=O)C(C)Oc2ccccc2Br)o1` (stereo not shown) [CBK262226], the viability at 28.5 h, 10 µM came to 103%.

Consider `Cc1ccc(COc2ccc(/C=N/NC(=O)CN3CCCCC3)cc2)cc1` [CBK262227], for which the viability at 28.5 h, 10 µM is 103%.

Regarding `C/C(=N\NC(=O)CN(c1ccc(C)cc1)S(=O)(=O)c1ccccc1)c1ccc(Cl)cc1` [CBK262229], the viability at 28.5 h, 10 µM came out at 93.3%.

With `Cc1cc(OCCCNCCO)ccc1Cl` [CBK262230], the viability at 28.5 h, 10 µM came out at 95.4%.

The same data set, now with this note: human, hela cells, % viability, bulk resorufin, single well.
As to `Cc1ccc(C=C2C(=O)NC(=O)NC2=O)cc1[N+](=O)[O-]` [CBK262102], the viability at 28.5 h, 10 µM stood at 97.9%.

In the case of `O=C(O)c1cc(N2C(=O)c3cccc4c([N+](=O)[O-])ccc(c34)C2=O)cc(N2C(=O)c3cccc4c([N+](=O)[O-])ccc(c34)C2=O)c1` [CBK262119], the viability at 28.5 h, 10 µM worked out at 91.8%.

The viability is a read-out of living cells in per cent, often relative to untreated cells.
